Measurements from ChEMBL document CHEMBL3593161, “Discovery of potent and selective nonplanar tankyrase inhibiting nicotinamide mimics” (Bioorg Med Chem, 2015).
Where “and” joins values, the source holds several entries; their conditions need not be identical. Equal values may be shown once.

Columns and labels:
[1] = molecular target: T1, Poly [ADP-ribose] polymerase tankyrase-2 (Homo sapiens, UniProt Q9H2K2)
T1 sequence (Q9H2K2 whole entry): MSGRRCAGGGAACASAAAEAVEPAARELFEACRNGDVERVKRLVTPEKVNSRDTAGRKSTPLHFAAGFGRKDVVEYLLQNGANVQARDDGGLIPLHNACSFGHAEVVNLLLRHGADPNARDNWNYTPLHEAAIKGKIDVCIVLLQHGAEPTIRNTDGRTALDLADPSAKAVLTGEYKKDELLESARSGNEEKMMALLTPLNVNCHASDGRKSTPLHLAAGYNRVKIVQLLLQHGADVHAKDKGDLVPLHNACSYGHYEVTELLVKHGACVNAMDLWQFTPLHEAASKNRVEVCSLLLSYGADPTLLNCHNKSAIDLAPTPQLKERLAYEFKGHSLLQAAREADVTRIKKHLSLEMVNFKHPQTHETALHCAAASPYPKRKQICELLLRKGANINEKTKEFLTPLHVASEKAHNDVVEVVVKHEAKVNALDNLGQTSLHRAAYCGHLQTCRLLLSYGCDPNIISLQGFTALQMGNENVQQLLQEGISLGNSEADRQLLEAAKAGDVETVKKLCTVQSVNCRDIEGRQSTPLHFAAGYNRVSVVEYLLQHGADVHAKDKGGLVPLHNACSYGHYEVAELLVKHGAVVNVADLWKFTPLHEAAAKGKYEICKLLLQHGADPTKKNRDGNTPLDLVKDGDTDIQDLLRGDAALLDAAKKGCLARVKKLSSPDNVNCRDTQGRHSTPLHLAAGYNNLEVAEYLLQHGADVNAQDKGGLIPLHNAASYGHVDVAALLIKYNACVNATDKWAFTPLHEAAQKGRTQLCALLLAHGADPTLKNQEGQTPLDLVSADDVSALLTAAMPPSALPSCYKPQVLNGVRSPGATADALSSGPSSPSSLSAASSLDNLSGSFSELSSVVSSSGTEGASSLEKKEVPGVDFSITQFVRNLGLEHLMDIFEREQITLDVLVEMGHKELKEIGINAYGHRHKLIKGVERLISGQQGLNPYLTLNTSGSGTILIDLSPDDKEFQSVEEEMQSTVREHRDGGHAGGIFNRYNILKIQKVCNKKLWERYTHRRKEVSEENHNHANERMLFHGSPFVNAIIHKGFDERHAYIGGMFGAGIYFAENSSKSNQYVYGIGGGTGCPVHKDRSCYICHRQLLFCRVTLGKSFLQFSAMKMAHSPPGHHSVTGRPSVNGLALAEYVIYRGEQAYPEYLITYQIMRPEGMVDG
Description: Inhibition of human TNKS2 (956 to 1161 and 873 to 1161) using 500 nM NAD substrate after 20 mins incubation by fluorescence assay

[2] = molecular target: T2, Protein mono-ADP-ribosyltransferase PARP10 (Homo sapiens, UniProt Q53GL7); test: Inhibition of human ARTD10 (809 to 1017) using 500 nM NAD substrate after 2.5 hrs incubation
T2 sequence (Q53GL7 whole entry): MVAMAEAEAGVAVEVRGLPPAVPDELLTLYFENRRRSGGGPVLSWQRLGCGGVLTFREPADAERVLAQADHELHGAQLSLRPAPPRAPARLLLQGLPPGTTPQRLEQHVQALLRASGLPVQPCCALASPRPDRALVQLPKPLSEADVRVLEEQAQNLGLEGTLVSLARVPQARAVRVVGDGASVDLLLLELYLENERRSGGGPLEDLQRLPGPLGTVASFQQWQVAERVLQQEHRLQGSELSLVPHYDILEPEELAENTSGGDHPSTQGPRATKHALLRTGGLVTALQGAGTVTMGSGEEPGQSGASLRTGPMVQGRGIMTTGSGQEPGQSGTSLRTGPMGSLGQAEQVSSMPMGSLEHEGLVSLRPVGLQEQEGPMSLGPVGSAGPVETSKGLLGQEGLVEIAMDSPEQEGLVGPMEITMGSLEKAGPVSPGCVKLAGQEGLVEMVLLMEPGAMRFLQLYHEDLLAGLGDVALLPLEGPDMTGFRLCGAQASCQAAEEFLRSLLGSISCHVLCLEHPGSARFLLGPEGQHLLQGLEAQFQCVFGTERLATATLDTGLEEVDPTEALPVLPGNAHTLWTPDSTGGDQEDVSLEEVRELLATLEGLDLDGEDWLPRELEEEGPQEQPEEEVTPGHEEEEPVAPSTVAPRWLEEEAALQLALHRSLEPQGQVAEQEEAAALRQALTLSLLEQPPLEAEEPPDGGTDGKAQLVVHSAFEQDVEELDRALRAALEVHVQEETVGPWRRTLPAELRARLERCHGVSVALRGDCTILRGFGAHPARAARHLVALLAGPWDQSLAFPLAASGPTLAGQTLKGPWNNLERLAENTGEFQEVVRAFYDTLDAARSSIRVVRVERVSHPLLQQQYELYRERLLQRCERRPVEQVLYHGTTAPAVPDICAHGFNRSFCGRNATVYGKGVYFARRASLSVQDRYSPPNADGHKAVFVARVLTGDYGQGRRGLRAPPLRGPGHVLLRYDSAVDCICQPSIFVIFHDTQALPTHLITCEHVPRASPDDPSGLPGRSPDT

[3] = molecular target: Protein mono-ADP-ribosyltransferase PARP4 (Homo sapiens, UniProt Q9UKK3); test: Inhibition of human ARTD4 (250 to 565) using 500 nM NAD substrate after 2.5 hrs incubation
Protein mono-ADP-ribosyltransferase PARP4, sequence (Q9UKK3 whole entry): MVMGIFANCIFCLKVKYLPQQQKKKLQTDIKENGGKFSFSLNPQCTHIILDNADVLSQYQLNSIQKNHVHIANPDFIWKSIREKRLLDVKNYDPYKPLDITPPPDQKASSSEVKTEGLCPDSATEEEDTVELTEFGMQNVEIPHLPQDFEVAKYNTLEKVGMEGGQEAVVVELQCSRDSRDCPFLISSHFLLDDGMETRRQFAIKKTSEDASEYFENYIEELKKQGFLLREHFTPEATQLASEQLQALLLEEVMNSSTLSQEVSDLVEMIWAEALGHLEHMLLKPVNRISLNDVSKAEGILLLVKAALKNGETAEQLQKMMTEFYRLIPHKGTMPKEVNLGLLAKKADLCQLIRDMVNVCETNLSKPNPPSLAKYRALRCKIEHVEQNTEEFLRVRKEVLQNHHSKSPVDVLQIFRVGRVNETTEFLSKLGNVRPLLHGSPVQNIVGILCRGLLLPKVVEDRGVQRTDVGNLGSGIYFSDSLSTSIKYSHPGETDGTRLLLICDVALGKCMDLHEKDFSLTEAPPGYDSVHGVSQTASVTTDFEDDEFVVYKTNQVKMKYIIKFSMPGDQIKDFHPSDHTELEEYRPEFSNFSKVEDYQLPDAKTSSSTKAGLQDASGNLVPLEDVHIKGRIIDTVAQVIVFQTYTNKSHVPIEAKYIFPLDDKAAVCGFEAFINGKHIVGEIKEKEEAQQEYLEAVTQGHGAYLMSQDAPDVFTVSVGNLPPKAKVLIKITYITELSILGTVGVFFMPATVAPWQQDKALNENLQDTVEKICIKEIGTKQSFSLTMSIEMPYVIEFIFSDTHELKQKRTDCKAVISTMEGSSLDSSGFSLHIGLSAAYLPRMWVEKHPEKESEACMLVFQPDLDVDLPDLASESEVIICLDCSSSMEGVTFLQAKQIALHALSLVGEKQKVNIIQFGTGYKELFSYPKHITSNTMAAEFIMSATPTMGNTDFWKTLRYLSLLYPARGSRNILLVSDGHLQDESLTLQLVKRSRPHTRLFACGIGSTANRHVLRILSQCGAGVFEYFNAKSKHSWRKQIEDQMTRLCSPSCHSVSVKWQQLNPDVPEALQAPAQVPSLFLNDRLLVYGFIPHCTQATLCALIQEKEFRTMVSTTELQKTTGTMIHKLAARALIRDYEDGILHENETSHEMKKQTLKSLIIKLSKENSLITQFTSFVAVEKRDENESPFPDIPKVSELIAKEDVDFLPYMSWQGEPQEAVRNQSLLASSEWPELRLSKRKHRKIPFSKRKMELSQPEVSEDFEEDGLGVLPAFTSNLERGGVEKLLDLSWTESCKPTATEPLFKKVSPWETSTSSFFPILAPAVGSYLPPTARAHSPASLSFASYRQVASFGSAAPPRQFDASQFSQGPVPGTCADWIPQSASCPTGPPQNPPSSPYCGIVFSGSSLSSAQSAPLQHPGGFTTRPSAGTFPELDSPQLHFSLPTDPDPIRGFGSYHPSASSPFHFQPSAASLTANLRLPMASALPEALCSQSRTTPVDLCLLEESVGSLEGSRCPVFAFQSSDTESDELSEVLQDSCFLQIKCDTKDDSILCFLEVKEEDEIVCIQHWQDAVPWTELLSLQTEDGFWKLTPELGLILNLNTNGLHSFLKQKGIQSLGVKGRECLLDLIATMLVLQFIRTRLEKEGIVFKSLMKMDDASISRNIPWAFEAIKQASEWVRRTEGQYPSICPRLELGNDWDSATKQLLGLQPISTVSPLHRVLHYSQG

HEK293 = test: Cytotoxicity against HEK293 cells assessed as cell viability at 2.5 to 10 uM; assay type: cell-based; details: human, hek293, 10 µM
[4] = molecular target: T3, Protein mono-ADP-ribosyltransferase PARP15 (Homo sapiens, UniProt Q460N3); test: Inhibition of human ARTD7 (460 to 656) using 250 nM NAD substrate after 2 hrs incubation
T3 sequence (Q460N3 whole entry): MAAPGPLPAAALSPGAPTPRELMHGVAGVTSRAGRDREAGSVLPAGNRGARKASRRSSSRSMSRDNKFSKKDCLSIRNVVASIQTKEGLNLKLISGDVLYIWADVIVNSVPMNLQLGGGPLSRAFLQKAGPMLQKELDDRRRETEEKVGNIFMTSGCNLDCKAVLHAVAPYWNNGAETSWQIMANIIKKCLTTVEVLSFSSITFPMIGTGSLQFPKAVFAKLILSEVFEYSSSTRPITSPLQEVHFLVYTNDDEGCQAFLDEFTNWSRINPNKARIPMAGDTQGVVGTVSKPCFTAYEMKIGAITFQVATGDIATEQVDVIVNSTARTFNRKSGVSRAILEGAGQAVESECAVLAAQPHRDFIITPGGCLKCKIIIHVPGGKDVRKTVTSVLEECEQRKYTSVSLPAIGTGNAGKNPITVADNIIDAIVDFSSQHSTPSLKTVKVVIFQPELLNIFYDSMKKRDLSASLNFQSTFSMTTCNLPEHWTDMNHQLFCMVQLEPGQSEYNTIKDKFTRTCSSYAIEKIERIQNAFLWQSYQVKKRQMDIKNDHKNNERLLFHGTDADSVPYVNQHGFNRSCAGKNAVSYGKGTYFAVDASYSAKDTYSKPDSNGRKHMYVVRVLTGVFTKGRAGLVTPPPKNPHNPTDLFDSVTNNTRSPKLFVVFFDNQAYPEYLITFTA

[5] = molecular target: T4, Poly [ADP-ribose] polymerase tankyrase-1 (Homo sapiens, UniProt O95271); test: Inhibition of human TNKS1 (1030 to 1317) using NAD substrate after 20 mins incubation by fluorescence assay
T4 sequence (O95271 whole entry): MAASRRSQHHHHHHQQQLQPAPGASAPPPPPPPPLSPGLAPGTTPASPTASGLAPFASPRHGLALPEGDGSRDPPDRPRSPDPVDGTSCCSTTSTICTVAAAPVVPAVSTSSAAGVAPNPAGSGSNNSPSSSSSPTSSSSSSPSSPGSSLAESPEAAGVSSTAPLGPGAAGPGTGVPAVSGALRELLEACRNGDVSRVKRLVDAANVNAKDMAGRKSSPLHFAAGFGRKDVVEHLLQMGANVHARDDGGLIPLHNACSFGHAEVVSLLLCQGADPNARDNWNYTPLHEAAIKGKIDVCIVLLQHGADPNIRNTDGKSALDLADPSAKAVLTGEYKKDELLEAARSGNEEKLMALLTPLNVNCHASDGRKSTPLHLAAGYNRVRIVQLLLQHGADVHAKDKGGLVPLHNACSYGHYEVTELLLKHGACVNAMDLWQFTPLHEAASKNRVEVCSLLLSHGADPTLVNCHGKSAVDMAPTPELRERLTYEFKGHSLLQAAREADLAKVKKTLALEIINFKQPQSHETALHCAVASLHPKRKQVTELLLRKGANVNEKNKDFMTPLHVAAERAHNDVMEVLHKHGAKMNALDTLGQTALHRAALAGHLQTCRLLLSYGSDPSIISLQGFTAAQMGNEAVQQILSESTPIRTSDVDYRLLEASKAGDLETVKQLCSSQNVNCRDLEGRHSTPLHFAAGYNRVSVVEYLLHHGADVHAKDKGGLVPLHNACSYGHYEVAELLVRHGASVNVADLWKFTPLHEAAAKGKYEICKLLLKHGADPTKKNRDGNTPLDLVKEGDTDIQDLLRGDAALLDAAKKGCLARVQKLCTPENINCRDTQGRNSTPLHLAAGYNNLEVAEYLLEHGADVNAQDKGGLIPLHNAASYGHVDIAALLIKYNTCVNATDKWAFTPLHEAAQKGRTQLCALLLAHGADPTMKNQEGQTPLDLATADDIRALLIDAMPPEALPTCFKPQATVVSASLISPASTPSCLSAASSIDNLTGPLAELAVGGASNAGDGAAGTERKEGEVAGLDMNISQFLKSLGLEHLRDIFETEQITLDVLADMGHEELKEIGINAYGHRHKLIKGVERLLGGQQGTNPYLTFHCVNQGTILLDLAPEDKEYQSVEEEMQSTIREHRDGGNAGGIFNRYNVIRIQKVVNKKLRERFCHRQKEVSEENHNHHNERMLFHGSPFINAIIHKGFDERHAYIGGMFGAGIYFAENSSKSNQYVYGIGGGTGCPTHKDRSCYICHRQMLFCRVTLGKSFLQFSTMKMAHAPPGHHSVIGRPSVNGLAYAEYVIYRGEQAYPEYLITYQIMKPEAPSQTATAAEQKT

[6] = molecular target: Poly [ADP-ribose] polymerase 2 (Homo sapiens, UniProt Q9UGN5); test: Inhibition of full-length human ARTD2 using 500 nM NAD substrate after 3 hrs incubation
Poly [ADP-ribose] polymerase 2, sequence (Q9UGN5 whole entry): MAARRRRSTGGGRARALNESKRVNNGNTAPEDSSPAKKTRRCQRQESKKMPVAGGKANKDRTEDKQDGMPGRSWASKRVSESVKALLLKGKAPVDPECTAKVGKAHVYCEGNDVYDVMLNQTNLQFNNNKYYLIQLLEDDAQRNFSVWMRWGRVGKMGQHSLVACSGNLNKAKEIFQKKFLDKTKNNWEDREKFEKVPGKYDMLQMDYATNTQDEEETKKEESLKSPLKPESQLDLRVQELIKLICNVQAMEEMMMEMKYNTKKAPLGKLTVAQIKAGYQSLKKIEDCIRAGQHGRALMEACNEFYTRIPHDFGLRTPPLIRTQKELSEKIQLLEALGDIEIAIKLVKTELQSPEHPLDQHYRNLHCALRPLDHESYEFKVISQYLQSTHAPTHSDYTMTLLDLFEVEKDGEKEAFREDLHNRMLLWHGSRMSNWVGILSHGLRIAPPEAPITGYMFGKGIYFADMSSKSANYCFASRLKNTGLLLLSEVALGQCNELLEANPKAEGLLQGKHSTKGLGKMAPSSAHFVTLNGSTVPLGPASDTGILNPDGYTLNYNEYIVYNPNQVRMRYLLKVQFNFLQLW

[7] = molecular target: Poly [ADP-ribose] polymerase 1 (Homo sapiens, UniProt P09874); test: Inhibition of full-length human ARTD1 using 500 nM NAD substrate after 1 hr incubation
Poly [ADP-ribose] polymerase 1, sequence (P09874 whole entry): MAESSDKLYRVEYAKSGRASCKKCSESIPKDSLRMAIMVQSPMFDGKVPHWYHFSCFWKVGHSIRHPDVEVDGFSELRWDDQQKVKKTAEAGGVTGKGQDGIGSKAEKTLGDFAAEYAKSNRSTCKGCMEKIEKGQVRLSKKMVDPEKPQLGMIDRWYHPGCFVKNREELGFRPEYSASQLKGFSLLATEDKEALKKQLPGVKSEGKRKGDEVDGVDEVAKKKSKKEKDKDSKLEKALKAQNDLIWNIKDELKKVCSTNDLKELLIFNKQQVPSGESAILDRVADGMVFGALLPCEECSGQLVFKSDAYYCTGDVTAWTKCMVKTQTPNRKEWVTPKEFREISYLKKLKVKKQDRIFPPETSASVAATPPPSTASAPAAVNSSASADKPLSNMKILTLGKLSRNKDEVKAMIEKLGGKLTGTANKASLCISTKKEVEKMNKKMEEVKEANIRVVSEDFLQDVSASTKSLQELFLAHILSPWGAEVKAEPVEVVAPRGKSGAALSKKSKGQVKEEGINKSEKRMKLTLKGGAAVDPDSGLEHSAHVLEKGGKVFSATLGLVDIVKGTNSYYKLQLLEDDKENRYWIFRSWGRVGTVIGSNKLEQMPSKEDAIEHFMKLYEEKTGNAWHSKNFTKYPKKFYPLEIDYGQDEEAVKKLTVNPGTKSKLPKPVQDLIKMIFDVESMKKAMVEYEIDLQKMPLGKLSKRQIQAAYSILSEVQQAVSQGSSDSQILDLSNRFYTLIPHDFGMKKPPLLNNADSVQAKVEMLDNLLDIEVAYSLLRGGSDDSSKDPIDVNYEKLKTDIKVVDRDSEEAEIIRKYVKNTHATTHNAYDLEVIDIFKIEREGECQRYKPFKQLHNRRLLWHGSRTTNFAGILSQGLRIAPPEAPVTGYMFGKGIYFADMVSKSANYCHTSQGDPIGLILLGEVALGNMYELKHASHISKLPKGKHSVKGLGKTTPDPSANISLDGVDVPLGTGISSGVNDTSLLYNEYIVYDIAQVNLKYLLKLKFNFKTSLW

[8] = molecular target: T3, Protein mono-ADP-ribosyltransferase PARP15; test: Inhibition of human ARTD7 (460 to 656) using 250 nM NAD substrate at 10 uM after 2 hrs incubation
[9] = molecular target: T2, Protein mono-ADP-ribosyltransferase PARP10; test: Inhibition of human ARTD10 (809 to 1017) using 500 nM NAD substrate at 10 uM after 2.5 hrs incubation
[10] = molecular target: T5, Protein mono-ADP-ribosyltransferase PARP3 (Homo sapiens, UniProt Q9Y6F1); test: Inhibition of full-length human ARTD3 using 500 nM NAD substrate after 1 hrs incubation
T5 sequence (Q9Y6F1 whole entry): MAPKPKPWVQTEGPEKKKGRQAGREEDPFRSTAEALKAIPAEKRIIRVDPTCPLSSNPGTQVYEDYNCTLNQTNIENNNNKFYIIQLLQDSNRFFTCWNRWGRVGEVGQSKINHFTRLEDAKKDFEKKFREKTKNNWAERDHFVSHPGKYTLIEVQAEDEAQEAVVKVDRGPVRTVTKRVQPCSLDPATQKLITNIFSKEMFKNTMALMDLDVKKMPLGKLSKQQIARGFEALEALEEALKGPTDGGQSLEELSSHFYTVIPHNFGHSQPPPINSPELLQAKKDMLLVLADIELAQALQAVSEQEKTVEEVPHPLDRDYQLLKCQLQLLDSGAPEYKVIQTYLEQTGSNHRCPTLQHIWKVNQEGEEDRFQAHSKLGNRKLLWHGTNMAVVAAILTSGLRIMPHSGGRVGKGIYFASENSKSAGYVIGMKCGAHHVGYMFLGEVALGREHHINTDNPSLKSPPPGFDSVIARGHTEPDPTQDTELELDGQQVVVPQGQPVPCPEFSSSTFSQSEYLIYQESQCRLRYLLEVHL

Compound	IC50 [1]	IC50 [3]	IC50 [5]	IC50 [6]	Activity (HEK293)	also measured
CCc1c(C)nc(N2CCN(c3ccccc3F)CC2)nc1O	0.72 µM and 0.724 µM	–	–	–	–	–
O=c1[nH]c(N2CCN(Cc3ccncc3)CC2)nc2c1CCCC2	–	33 µM	0.37 µM	4.2 µM	Non-toxic	IC50 [2]: 5.4 µM; IC50 [4]: > 10 µM
CN1CCN(c2nc3c(c(=O)[nH]2)CCCC3)CC1	–	17 µM	6.3 µM	3.6 µM	Non-toxic	IC50 [2]: > 10 µM; IC50 [4]: > 10 µM
CN1c2ncccc2C(=O)NC1c1ccc(NC(=O)C2CCOCC2)cc1 (centres undefined)	6.6 µM	–	–	–	–	–
O=c1[nH]c(N2CCNCC2)nc2c1CCO2	> 100 µM	–	–	–	–	–
O=C1NC(c2ccccc2Cl)Nc2ncccc21 (centres undefined)	140 µM	–	–	–	–	–
CC(C)c1ccc(C2NC(=O)c3ccccc3N2)cc1 (centres undefined)	0.23 µM and 0.234 µM	> 100 µM	1.1 µM	> 100 µM	Non-toxic	IC50 [7]: > 100 µM; IC50 [8]: > 10 µM; IC50 [9]: > 10 µM; IC50 [10]: 50 µM
CC(C)(C)c1ccc(C2NC(=O)c3ccccc3N2)cc1 (centres undefined)	0.15 µM and 0.155 µM	> 100 µM	0.62 µM	> 100 µM	Non-toxic	IC50 [7]: > 100 µM; IC50 [8]: > 10 µM; IC50 [9]: > 10 µM; IC50 [10]: 34 µM

Continued, in another order:

IC50 [1]	IC50 [3]	IC50 [5]	IC50 [6]	Compound	Activity (HEK293)	also measured
0.99 µM and 1 µM	–	–	–	COc1ccc(C2NC(=O)c3ccccc3N2)cc1 (centres undefined)	–	–
0.41 µM and 0.417 µM	–	–	–	O=C1NC(c2ccc(Cl)cc2)Nc2ccccc21 (centres undefined)	–	–
31.2 µM	–	–	–	O=C1NC(c2ccccc2Cl)Nc2ccccc21 (centres undefined)	–	–
7.3 µM and 7.24 µM	–	–	–	O=C1NC(c2cccc(OCc3ccccc3)c2)Nc2ccccc21 (centres undefined)	–	–
230 µM	–	–	–	O=C1NC(c2cccc(OCc3ccccc3)c2)Nc2ncccc21 (centres undefined)	–	–
